The text below walks through data of EP0011663A1, “Toilet and dental preparations and their use for oral and dental hygiene” (UNILEVER PLC, priority 1978, dated 1980).

Data set [1] concerns in vitro plaque. Briefly: in vitro artificial plaque assay on saliva-coated aluminium plummets (Tests 1, 3, 4 and general statements). In kind it is cell-based. The settings on record: for minimum amount of the metal compound necessary to result in control of plaque: at the site of formation of the plaque, under the conditions of the tests. How it is done:
An in vitro test was used in the Tests described herein for examining and effects of chemotherapeutic agents on plaque, and was carried out in accordance with the test reported in the Journal of Dental Research, Vol. 55, February 1976, page B286, by R T Evans, P J Baker, R A Coburn and R J Genco. An assay system for producing artificial plaque was used to screen antiplaque agents rapidly under conditions which simulated those found in the oral cavity.
The in vitro plaque was formed at 37°C on uniformly- sized aluminium plummets which were first coated with saliva. The plummets were then placed in a growth medium inoculated with clinical plaque samples. After seven hours the plummets were suspended overnight in a 25;0 saliva mixture. On the second day, the plummets were immersed in a 50% saliva - 50% test compound mixture for one minute, placed in the growth medium for seven hours, retreated with the test mixture and suspended in 25% saliva overnight. The plummets were treated again on the third day and incubated in the growth medium for three hcurs. The plaques were removed from the plummets by donication into approximately six millilitres of buffer and quantitated by optical density (O.D.) in a Beckman DU spectrophotometer at 570 nm.
Positive controls were included to determine relative activity. Comparisons of antiplaque activity were then made within a given experiment. At least five replicas per compound were examined.
The experiments are conducted in the same manner, in a 15% ethanol/water media at pH 5.
The effects of 0.060% tetradecylamine (TDA) 0.05 SnCl4, and the combination of SnCl and TDA at these concentrations are examined by the artificial plaque method previously described, all with 15% ethanol, at pH 2.6.

Another data set deals with rats. The settings on record: orally in rats; Seventh Issue of the Merck Index; cited from earlier work.
Data set [2] concerns in vitro plaque. In words: in vitro artificial plaque assay, treatment on the third day eliminated (Test 2). In kind it is cell-based. The settings on record: no treatment on third day. How it is done: An in vitro test was used in the Tests described herein for examining and effects of chemotherapeutic agents on plaque, and was carried out in accordance with the test reported in the Journal of Dental Research, Vol. 55, February 1976, page B286, by R T Evans, P J Baker, R A Coburn and R J Genco. An assay system for producing artificial plaque was used to screen antiplaque agents rapidly under conditions which simulated those found in the oral cavity. […] The assay gives reproducible, quantitative results and has the ability to distinguish between antibacterial agents which are clinically effective or non-effective as plaquae inhibitors. The in vitro plaque was formed at 37°C on uniformly- sized aluminium plummets which were first coated with saliva. The plummets were then placed in a growth medium inoculated with clinical plaque samples. After seven hours the plummets were suspended overnight in a 25;0 saliva mixture. On the second day, the plummets were immersed in a 50% saliva - 50% test compound mixture for one minute, placed in the growth medium for seven hours, retreated with the test mixture and suspended in 25% saliva overnight. The plummets were treated again on the third day and incubated in the growth medium for three hcurs. The plaques were removed from the plummets by donication into approximately six millilitres of buffer and quantitated by optical density (O.D.) in a Beckman DU spectrophotometer at 570 nm. […] Positive controls were included to determine relative activity. Comparisons of antiplaque activity were then made within a given experiment. At least five replicas per compound were examined. To test higher levels of tetradecylamine, the artificial plaque treatment previously described is eliminated on the third day to simulate infrequent use of the antiplaque products.

For a further data set, the system named is plaque. Particulars: clinical data, zinc salt alone; cited from earlier work.
Data set [3] is described as follows: critical micellar concentration (CMC). In kind it is physicochemical.
[4] abbreviates: amine in place of tetradecylamine, in combination with metal compounds (zinc or aluminium).
Where [5] appears, read: cation or anion as such, by the in vitro assay.
The mark [6] stands for this setting: metal salt alone 0.10 % Wt./Vol., 15% ethanol/water, pH 5.
[7] abbreviates: addition of CO2 to tetradecylamine.

Entries after “also recorded” stand apart in the source; their conditions may differ. Read-outs that look alike come from different tables or passages of the source. Marks after values point to notes of the source that are not given here.

Consider `O.O.O.O.O.[Cl][Sn]([Cl])([Cl])[Cl]` [SnCl4.5H2O, reference compound], for which the “% Reduction” value in the data set on in vitro plaque [1] (SnCl4.5H2O 0.05 % Wt/Vol., 15% ethanol, pH 2.6, negative = weight gain) is recorded as -8* %.

On to `CCCCCCCCCCCCN` [Dodecylamine, reference compound], for which the synergistic plaque reductions entry in the data set with in vitro plaque [1] (setting [4]) is on record as “do not give synergistic plaque reductions”; with in vitro plaque [1] (amine in place of tetradecylamine, in combination with metal compounds (zinc or aluminium), listed as dodecylamine) it was “not found”. For phosphate, in the data set with in vitro plaque [1] (setting [5]), the synergistic plaque reductions entry is recorded as “synergism has not been found; also recorded: synergism was not found”.

For `O=[N+]([O-])O` [nitrate], the synergistic plaque reductions entry with in vitro plaque [1] is “synergism has not been found; also recorded: synergism was not found”. On to `[Al]` [aluminium], for which, in the data set with rats, the LD50 was 3-4 g/kg body weight. Also, in the data set on in vitro plaque [1], the “minimum amount of the metal compound necessary to result in control of plaque” value (from here on “minimum amount”) is recorded as “about 0.001 molar”. Take `[Cl-].[Cl-].[Zn+2]` [ZnCl2, reference compound]: the “Average Optical Density” value in the data set on in vitro plaque [1] (ZnCl2 .30 % Wt/Vol, 15% ethanol, pH 4.1, O.D. at 570 nm) is listed as “.766”. Also, the “% Reduction” value in the data set with in vitro plaque [1] (ZnCl2 .30 % Wt/Vol, 15% ethanol, pH 4.1, vs H2O control, negative = weight gain) is listed as -8.0* %. With `F` [fluoride], the synergistic plaque reductions result in the data set on in vitro plaque [1] is listed as “synergism has not been found; also recorded: synergism was not found”. `O.O.O.O.O.O.[Cl-].[Cl-].[Cl-].[Fe+3]` [FeCl3.6H2O, reference compound]: the “% Reduction” value with in vitro plaque [1] (setting [6]) is recorded as -38%. `O.O.O.O.O.O.[Al+3].[Cl-].[Cl-].[Cl-]` [AlCl3.6H2O]: the “Average Optical Density” value stood at 1.218 in the data set on in vitro plaque [2] (AlCl3.6H2O 1.00 % Wt/Vol) and 1.080 in the data set on in vitro plaque [2] (AlCl3.6H2O .250 % Wt/Vol). Moreover, the “% Reduction” value is recorded as -9.4* % with in vitro plaque [2] (AlCl3.6H2O 1.00 % Wt/Vol, negative = weight gain) and 3.0% with in vitro plaque [2] (AlCl3.6H2O .250 % Wt/Vol, vs H2O control). Take `[Fe]` [iron]: in the data set on rats, the LD50 was 0.3-0.9 g/kg body weight. Also, the “minimum amount” value in the data set with in vitro plaque [1] was about 500 µM. In the case of `[Mg+2]` [magnesium], in the data set on in vitro plaque [1] (setting [5]), the synergistic plaque reductions entry is listed as “have not been found to give synergistic plaque reductions; also recorded: did not give synergistic plaque reductions”.

In the case of `[Ca+2]` [calcium], the synergistic plaque reductions entry in the data set with in vitro plaque [1] is “have not been found to give synergistic plaque reductions; also recorded: did not give synergistic plaque reductions”.

Regarding `[K+]` [potassium], the synergistic plaque reductions result with in vitro plaque [1] (setting [5]) is “have not been found to give synergistic plaque reductions; also recorded: did not give synergistic plaque reductions”.

Take `CCCCCCCCCCCCN(C)C` [dimethyldodecylamine, reference compound]: in the data set with in vitro plaque [1] (setting [4]), the synergistic plaque reductions result was “do not give synergistic plaque reductions”.

Regarding `Cl` [chloride], the synergistic plaque reductions result with in vitro plaque [1] (setting [5]) is recorded as “synergism has not been found; also recorded: synergism was not found”. Regarding `[Ni]` [nickel], the LD50 with rats is given as 0.3-0.9 g/kg body weight. Further, in the data set with in vitro plaque [1], the “minimum amount” value is about 500 µM.

As to `O.O.O.O.O.O.[Cl-].[Cl-].[Co+2]` [CoCl2.6H2O, reference compound], the “% Reduction” value with in vitro plaque [1] (setting [6]) is on record as -25%. With `[Cu]` [copper], the LD50 in the data set with rats is given as 0.3-0.9 g/kg body weight. The “minimum amount” value in the data set on in vitro plaque [1] is about 500 µM. As to `CCCCCCCCCCCCCCCC[n+]1ccccc1` [CPC, cetyl pyridinium chloride, reference compound], the “Average Optical Density” value with in vitro plaque [1] (pH 4.1) was “.515”. Consider `[Co]` [cobalt], for which, in the data set with rats, the LD50 was 0.3-0.9 g/kg body weight. For the same compound, in the data set with in vitro plaque [1], the “minimum amount” value is about 500 µM. As to `O.O.O.O.O.O.[Cl][Ni][Cl]` [NiCl2.6H2O, reference compound], the “% Reduction” value in the data set with in vitro plaque [1] (setting [6]) was -17%. Consider `[Sn]` [tin], for which the LD50 result in the data set on rats is on record as “about 0.05 g/kg body weight”. The “minimum amount” value in the data set with in vitro plaque [1] was about 500 µM. Turning to `[O-][n+]1ccccc1[S-].[O-][n+]1ccccc1[S-].[Zn+2]` [zinc salt], the reduction in plaque entry with plaque is on record as “about 5%”.

On to `CCCCCCCCCCCCCCN` [TDA, tetradecylamine, reference compound], for which the “Average Optical Density” value is reported as “.882” with in vitro plaque [2] (TDA .120 % Wt/Vol) and “.571” in the data set with in vitro plaque [1] (TDA .060 % Wt/Vol, 15% ethanol, pH 4.1, O.D. at 570 nm). Also, in the data set on in vitro plaque [2] (TDA .120 % Wt/Vol, vs H2O control, read-out: % Reduction), the inhibition at 0.12 % was determined as 20.7%. The CMC result in data set [3] (setting [7]) is “lowering”. The “critical micellar concentration (CMC)” value in data set [3] (in combination with selected metals) is given as “lowered”. In addition, the inhibition at 0.06 % came to 19% in the data set with in vitro plaque [1] (TDA 0.06 % Wt./Vol., 15% ethanol/water, pH 5, read-out: % Reduction); 19% in the data set with in vitro plaque [1] (TDA 0.06 % Wt/Vol., 15% ethanol, pH 2.6, read-out: % Reduction); 18.8% with in vitro plaque [1] (TDA .060 % Wt/Vol, 15% ethanol, pH 4.1, vs H2O control, read-out: % Reduction); 18% with in vitro plaque [1] (dose-response curve, tetradecylamine 0.060%, no metal present, read-out: plaque reduction). The antiplaque activity result with in vitro plaque [1] (setting [7]) was “increased”. In addition, the inhibition at 0.2 % in the data set with in vitro plaque [1] (dose-response curve, tetradecylamine 0.20%, no metal present, read-out: plaque reduction) is 44%. As to `O=S(=O)(O)O` [sulphate], the synergistic plaque reductions entry in the data set with in vitro plaque [1] (setting [5]) is recorded as “synergism has not been found; also recorded: synergism was not found”. For `CCCCCCCCCCN` [decylamine, reference compound], the synergistic plaque reductions entry with in vitro plaque [1] (setting [4]) is “do not give synergistic plaque reductions”. For `[Na]` [sodium], the synergistic plaque reductions result in the data set with in vitro plaque [1] (setting [5]) is recorded as “have not been found to give synergistic plaque reductions; also recorded: did not give synergistic plaque reductions”. As to `CCCCCCCCCCCCCCCCN` [hexadecylamine, reference compound], the synergistic plaque reductions result in the data set on in vitro plaque [1] (setting [4]) is listed as “do not give synergistic plaque reductions; also recorded: not found”.

`O.O.O.O=[N+]([O-])[O-].O=[N+]([O-])[O-].[Cu+2]` [Cu(NO3)2.3H2O, reference compound]: the “% Reduction” value in the data set with in vitro plaque [1] (setting [6]) is -10%. Consider `[Zn]` [zinc], for which the LD50 with rats was 3-4 g/kg body weight. The “minimum amount” value with in vitro plaque [1] is given as “about 0.001 molar”. For the compound `[HH]` [hydrogen], the synergistic plaque reductions entry in the data set with in vitro plaque [1] (setting [5]) is “have not been found to give synergistic plaque reductions; also recorded: did not give synergistic plaque reductions”. On to `CCCCCCCCCCCCCCCCCCN(C)C` [N,N'-dimethyl-octadecylamine, reference compound], for which the synergistic plaque reductions result with in vitro plaque [1] (setting [4]) is reported as “do not give synergistic plaque reductions”.
